Reference: patent publication US20220332774A1, “THERAPEUTIC MITOCHONDRIAL PEPTIDES” (priority 2019, published 2022)

Legend:
[1] = system: C2C12 Cells; assay: Glucose utilization in cultured C2C12 cells (myotubes); assay type: cell-based, mouse; settings: glucose concentration in medium relative to untreated cells; 5 μM peptide, 22 h
Method: The effect of the peptides on glucose homeostasis can be assessed using an assay to monitor glucose utilization by cultured cells such as mouse myotubes. Peptide arrays were initially prepared as 5 mM stock in DMSO and diluted to 0.5 mM in H2O; peptides were used at a final concentration of 5 μM (0.1% DMSO). Calculations for peptide concentrations based on approximate molecular weight of 2000 Daltons. C2C12 mouse muscle cell line was purchased from Millipore Sigma (Saint Louis, Mo.). C2C12 cells were seeded in standard medium (DMEM/low glucose (1 g/L)+10% Fetal Bovine Serum+antibiotics) at 7,500 cells/well on 96-well plates and grown to confluence at 37° C. in a humidified atmosphere of 5% CO2/95% air. Three days after plating the medium was removed and with Differentiation Medium (DMEM/low glucose (1 g/L)+2% Horse Serum+antibiotics) added. The cultures were placed at 37° C. in a humidified atmosphere of 5% CO2/95% air for 5 days with partially replacement of medium daily. After 5 days of differentiation, the medium was removed from myotube cultures and replaced with Assay Medium (DMEM/low glucose (1 g/L)+antibiotics). Culture were placed at 37° C. in a humidified atmosphere of 5% CO2/95% air for 5 h. Following the 5 h incubation the medium was removed and fresh Assay Medium containing compounds was added; 5 μM peptide or 1 mM metformin as a potent stimulator of glucose utilization. Cells were incubated for 22 h at 37° C. in a humidified atmosphere of 5% CO2/95% air. Following 22 h incubation, conditioned medium from each well was transferred to a fresh 96-well plate. Glucose concentrations in the medium were determined using a Glucose Assay kit (Abcam; Cambridge, Mass.) according to the manufacturer's instructions; absorbance measured using a Cytation 3 plate reader at 570 nm (BioTek, Winooski, Vt.). Untreated cells were used as reference for basal glucose utilization. Absorbance values were expressed as percent control activity relative to untreated treated cells for 5 μM peptide. The relative standard deviation from plate to plate of untreated control was <10%. […] Data presented are representative values from 2-3 independent experiments with each data point performed in triplicate in each independent experiment.

[2] = system: 3T3-L1 Mouse Adipocytes; assay: Free fatty acid levels in cultured 3T3-L1 mouse adipocytes (isoproterenol stimulated); assay type: cell-based; settings: free fatty acid in medium; 5 μM peptide, 20-22 h pre-incubation then 3 h with 0.1 nM isoproterenol; isoproterenol alone = 100%
Method: The effect of the peptides on fatty acid metabolism can be assessed using an assay to monitor free fatty acid levels produced by cultured cells such as mouse adipocytes. Peptide arrays were initially prepared as 5 mM stock in DMSO and diluted to 0.5 mM in H2O; peptides were used at a final concentration of 5 μM (0.1% DMSO). Calculations for peptide concentrations based on approximate molecular weight of 2000 Daltons. […] Mouse 3T3-L1 cells purchased from ZenBio (Research Triangle Park, NC) were seeded at 3,000 cells per well in 96-well plates in Pre-adipocyte Medium (Zen-Bio) and grown to confluence at 37° C. in a humidified atmosphere of 5% CO2/95% air. Two days after confluence, cells were placed in Adipocyte Differentiation Medium (Zen-Bio) and cultured for three additional days at 37° C. in a humidified atmosphere of 5% CO2/95% air. The culture medium was then replaced with Adipocyte Maintenance Medium (Zen-Bio) and the cells maintained for an additional 9 days at 37° C. in a humidified atmosphere of 5% CO2/95% air with partial medium replacement every other day. Following 12 days of differentiation, medium was replaced Adipocyte Maintenance Medium without insulin and the cultures placed at 37° C. in a humidified atmosphere of 5% CO2/95% air. On day 13 of differentiation, test peptides were added directly to each well (without replacing the medium) at a final concentration of 5 μM in 0.1% DMSO and incubated for 20-22 hours at 37° C. in a humidified atmosphere of 5% CO2/95% air. […] Cells were incubated for 3 hours in Assay Buffer (Zen-Bio) at 37° C. in a humidified atmosphere of 5% CO2/95% air. Following 3 h incubation, conditioned medium from each well was transferred to a fresh 96-well plate. Free fatty acid concentrations in the medium were determined using a Free Fatty Acid Assay kit (Zen-Bio) according to the manufacturer's instructions; absorbance was measured using a Cytation 3 plate reader at 540 nm (BioTek, Winooski, Vt.). Treatment with 0.1 nM isoproterenol alone was used as the free fatty acid level stimulatory control. Absorbance values were expressed as percent control activity relative to 0.1 nM isoproterenol alone treated cells, 100%. The relative standard deviation of the isoproterenol control was <10%. Insulin at 0.25 nM was used as a potent control for decreasing free fatty acid levels. […] Data presented are representative values from 2 independent experiments with each data point performed in triplicate in each independent experiment.

[3] = system: H4-IIE Cells; assay: Glucose production in cultured H4-IIE cells; assay type: cell-based, rat; settings: glucose concentration in medium relative to untreated cells; 5 μM peptide, 24 h
Method: The effect of the peptides on glucose homeostasis can be assessed using an assay to monitor glucose production by cultured cells such as rat hepatocytes. Peptide arrays were initially prepared as 5 mM stock in DMSO and diluted to 0.5 mM in H2O; peptides were used at a final concentration of 5 μM (0.1% DMSO). Calculations for peptide concentrations based on approximate molecular weight of 2000 Daltons. H4-IIE rat hepatic cell line was purchased from American Type Culture Collection (Manassas, Va.). H4-IIE cells were seeded in standard medium (DMEM/high glucose+10% Fetal Bovine Serum+antibiotics) at 100,000 cells/well on 96-well plates and allowed to adhere overnight at 37° C. in a humidified atmosphere of 5% CO2/95% air. 24 h after seeding, the medium was removed, cells were rinsed with glucose free DMEM, and the medium replaced with Glucose Production Medium (glucose free DMEM+2 mM sodium pyruvate+10 mM sodium lactate+antibiotics). The cultures were placed at 37° C. in a humidified atmosphere of 5% CO2/95% air overnight. The next morning, the medium was removed and fresh Glucose Production Medium containing compounds was added; 5 uM peptide or 0.5-1 nM insulin as a potent inhibitor of glucose production. Cells were incubated for 24 h at 37° C. in a humidified atmosphere of 5% CO2/95% air. Following 24 h incubation, conditioned medium from each well was transferred to a fresh 96-well plate. Glucose concentrations in the medium were determined using a Glucose Assay kit (Abcam; Cambridge, Mass.) according to the manufacturer's instructions; absorbance measured using a Cytation 3 plate reader at 570 nm (BioTek, Winooski, Vt.). Untreated cells were used as reference for maximal glucose production. Absorbance values were expressed as percent control activity relative to untreated treated cells for 5 μM peptide. The relative standard deviation from plate to plate of untreated control was <25%. […] Glucose levels for 0.5-1 nM insulin treatment were <5% of the untreated control value. Data are presented as representative values from 2-3 independent experiments with each data point performed in triplicate in each independent experiment.

Row | Substance | Percent of Control Activity [1] | Percent of Isoproterenol Control Activity [2] | Percent of Control Activity [3]
1 | 72 (MLQGQAHLSILFSI) [compound 72] | 97% | 96% | 107%
2 | 73 (MLRSMLWNLWSKPQFHAHRP) [compound 73] | 111% | 98% | 111%
3 | 75 (MLTPGLVNFVPATAVTRLTQVN) [compound 75] | 100% | 79% | 112%
4 | 78 (MMAHLGKKPVSGG) [compound 78] | 106% | 96% | 114%
5 | 79 (MMCLRFRWCGLWS) [compound 79] | 94% | 90% | 116%
6 | 80 (MMDPEHMNSMALKKAWVQMC) [compound 80] | 99% | 87% | 111%
7 | 81 (MMFPIRLHNSPIRP) [compound 81] | 118% | 90% | 115%
8 | 82 (MMGITMKKIITNAWAVTMTL) [compound 82] | 105% | 98% | 114%
9 | 83 (MMGMWLVGHYVLSC) [compound 83] | 95% | 102% | 109%
10 | 84 (MMKGKMKWKVKNRV) [compound 84] | 95% | 99% | 108%
11 | 85 (MMKLRLTPWRLPDPPNHH) [compound 85] | 88% | 81% | 108%
12 | 86 (MMLSWDDIIYGG) [compound 86] | 87% | 98% | 108%
13 | 87 (MMMFVYSAMKN) [compound 87] | 97% | 101% | 109%
14 | 88 (MMMTIECLHSHFPH) [compound 88] | 87% | 95% | 112%
15 | 89 (MMNSDSIIPS) [compound 89] | 112% | 111% | 110%
16 | 90 (MMSVWKVAVQTFNCYYYVLQALIN) [compound 90] | 97% | 101% | 104%

Row | Substance | Percent of Control Activity [1] | Percent of Isoproterenol Control Activity [2] | Percent of Control Activity [3]
17 | 91 (MMTHPTTPLTINTKPP) [compound 91] | 109% | 93% | 116%
18 | 92 (MMTWSPWKPVATKNVEP) [compound 92] | 93% | 99% | 124%
19 | 93 (MMWKTIVVFQLQEHQWPQYAKLTP) [compound 93] | 104% | 96% | 120%
20 | 95 (MNHIMAKGHDG) [compound 95] | 92% | 111% | 121%
21 | 96 (MNHNQYYQSMLIINNHNSYSNKT) [compound 96] | 91% | 100% | 130%
22 | 97 (MNNSSSTVQP) [compound 97] | 95% | 105% | 122%
23 | 98 (MNPDQPHHLLLSLYTAIFSKPWW) [compound 98] | 91% | 97% | 117%
24 | 100 (MPIIRRMSWSP) [compound 100] | 102% | 105% | 123%
25 | 102 (MPLRLEWVQWGVGGWPWVCC) [compound 102] | 102% | 120% | 108%
26 | 103 (MPPKDKIWNLV) [compound 103] | 98% | 108% | 97%
27 | 105 (MPRKCWLYPSRTN) [compound 105] | 114% | 91% | 118%
28 | 106 (MPTNLPTLNST) [compound 106] | 101% | 98% | 107%
29 | 107 (MPTPILIFRSPWSLYSYPT) [compound 107] | 110% | 104% | 96%
30 | 108 (MQFTLATPKCYGPGA) [compound 108] | 96% | 102% | 104%
31 | 109 (MQNPPHSSPHSSPLPRYSYLSPLLY) [compound 109] | 95% | 94% | 105%
32 | 110 (MQPYRRYRFHPRLSMIYPTLQLM) [compound 110] | 110% | 93% | 108%
